This is an account of results in US9962405B2, “Antiviral gel combination” (YEDITEPE UNIVERSITESI, priority 2013, dated 2018).

For one data set, the system named is HSV-1 virus. The following applies: in vitro, vero cells; cited from earlier work.
For another data set, the system named is Vero cells. The following applies: chlorhexidine at 0.002%; known from reference [12]; cited from earlier work.
Another data set deals with Herpes simplex virus. The settings on record: topically applied on infected skin, animal studies; cited from earlier work.
The test system of data set [1] is Herpes Simplex Type 1 virus. The data set is described as follows: Antiviral activity on HSV type 1 in Vero cells, cell viability by MTS, viral inhibition calculated. The following applies: tested at 0.0005, 0.001 and 0.002%, HSV-1 dilutions 10^-2 to 10^-5. It is filed as cell-based. How it is done:
Vero cells and Herpes Simplex Type 1 virus were used in order to observe the activity of the antiviral gel formulation; which is composed of a mixture of sodium pentaborate pentahydrate chlorhexidine and poloxamer; on Herpes Simplex Type 1 virus. Virus stock dilutions were prepared and used for the analysis. Five different concentrations were prepared from the main stock up to 10^−5 concentration and among these concentrations, the dilution of 10^−1 concentration was cancelled since no viable cell was observed. The other antiviral analyses were made at four different concentration values ranging from 10^−2 to 10^−5. Chlorhexidine was applied at three different concentrations: 0.0005-0.001-0.002%.

In the case of `[H]/N=C(\N/C(=N/[H])NCCCCCCNC(=N)NC(=N)Nc1ccc(Cl)cc1)Nc1ccc(Cl)cc1` [chlorhexidine], the “inhibition of viral replication of HSV-1” value in the data set on HSV-1 virus is recorded as “inhibits viral replication”. In addition, the cytotoxic effect result with Vero cells is “cytotoxic effect”. Also, the “inhibition of virus proliferation and lesion formation” value in the data set with Herpes simplex virus was “inhibits the virus from proliferating and forming lesions”. The “concentration of chlorhexidine alone at which the best antiviral activity was observed” value in data set [1] is on record as 0.002%.
